Target: T1, Human serum albumin (HSA) (Homo sapiens, UniProt P02768)
T1 construct: gene ALB; commercial native serum albumin (Sigma), essentially fatty acid free and globulin free; monomer
Assay: isothermal titration calorimetry, single set of identical sites
Type: binding
Settings: read-out: Ka[M^-1] / ITC ^a (converted)
Text: isothermal titration calorimetry, single set of identical sites on Human serum albumin (HSA)

T1 sequence (P02768 25-609): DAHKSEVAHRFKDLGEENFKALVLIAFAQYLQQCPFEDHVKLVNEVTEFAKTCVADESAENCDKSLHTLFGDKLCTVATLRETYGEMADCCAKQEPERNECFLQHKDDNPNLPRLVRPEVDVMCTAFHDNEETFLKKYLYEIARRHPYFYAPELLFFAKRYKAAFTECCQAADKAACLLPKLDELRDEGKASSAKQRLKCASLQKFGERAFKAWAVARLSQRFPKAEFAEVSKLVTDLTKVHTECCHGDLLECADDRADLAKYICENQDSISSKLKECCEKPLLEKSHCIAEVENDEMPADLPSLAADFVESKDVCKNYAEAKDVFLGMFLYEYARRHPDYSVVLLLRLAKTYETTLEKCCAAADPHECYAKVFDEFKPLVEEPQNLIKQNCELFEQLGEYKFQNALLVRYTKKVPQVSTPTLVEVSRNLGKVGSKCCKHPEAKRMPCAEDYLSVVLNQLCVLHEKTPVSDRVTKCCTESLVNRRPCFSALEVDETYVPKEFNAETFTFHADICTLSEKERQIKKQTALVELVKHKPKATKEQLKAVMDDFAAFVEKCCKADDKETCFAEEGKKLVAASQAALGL

SMILES: CN1CC(=O)NC1=N [creatinine, 2-Amino-1-methyl-5H-imidazol-4-one]
- Kd: 11.2 µM

Reference: article PMC3046181, “Elimination of Endogenous Toxin, Creatinine from Blood Plasma Depends on Albumin Conformation: Site Specific Uremic Toxicity & Impaired Drug Binding” (PLoS ONE, 2011)
